Molecular target: T1, recombinant human GR (Homo sapiens, UniProt P04150)
T1 construct: purchased Panvera/Invitrogen P2812 (kit P2893)
T1 sequence (P04150 1-777): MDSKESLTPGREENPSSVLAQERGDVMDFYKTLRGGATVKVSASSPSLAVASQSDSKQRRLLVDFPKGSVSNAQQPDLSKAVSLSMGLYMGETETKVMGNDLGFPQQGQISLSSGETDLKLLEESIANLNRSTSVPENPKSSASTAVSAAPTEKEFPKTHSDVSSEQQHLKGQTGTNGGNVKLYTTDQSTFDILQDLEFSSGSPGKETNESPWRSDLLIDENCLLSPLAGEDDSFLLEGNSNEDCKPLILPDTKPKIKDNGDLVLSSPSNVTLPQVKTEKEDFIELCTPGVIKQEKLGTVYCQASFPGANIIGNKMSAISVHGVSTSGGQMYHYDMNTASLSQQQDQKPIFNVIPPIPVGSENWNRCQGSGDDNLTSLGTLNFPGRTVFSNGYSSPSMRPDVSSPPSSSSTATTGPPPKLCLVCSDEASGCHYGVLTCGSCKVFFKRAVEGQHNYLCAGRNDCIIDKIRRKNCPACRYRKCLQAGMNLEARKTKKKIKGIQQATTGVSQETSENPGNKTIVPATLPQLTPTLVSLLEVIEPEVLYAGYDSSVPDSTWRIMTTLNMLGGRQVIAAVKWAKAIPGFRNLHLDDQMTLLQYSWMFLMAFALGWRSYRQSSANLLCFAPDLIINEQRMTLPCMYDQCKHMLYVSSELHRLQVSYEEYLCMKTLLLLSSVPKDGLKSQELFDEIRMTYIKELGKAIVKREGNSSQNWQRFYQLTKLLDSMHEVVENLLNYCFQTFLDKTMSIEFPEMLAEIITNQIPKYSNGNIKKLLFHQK
Assay: Human Glucocorticoid Receptor (GR) Assay (fluorescence polarization, Panvera/Invitrogen kit)
Type: binding
Conditions: GS Red tracer, incubated at room temperature for 2 hours, 100% control 10 μM Dexamethasone, read-out: GRhuFL_FP_v2 (GR-binders) IC50
Description: Human Glucocorticoid Receptor (GR) Assay
The assay is based on a commercial kit from Panvera/Invitrogen (Part number P2893). The assay technology is fluorescence polarization. The kit utilises recombinant human GR (Panvera, Part number P2812), a Fluoromone™ labelled tracer (GS Red, Panvera, Part number P2894) and a Stabilizing Peptide 10X (Panvera, Part number P2815). The GR and Stabilizing Peptide reagents are stored at −70° C. while the GS Red is stored at −20° C. Also included in the kit are 1M DTT (Panvera, Part number P2325, stored at −20° C.) and GR Screening buffer 10X (Panvera, Part number P2814, stored at −70° C. initially but once thawed stored at room temperature). Avoid repeated freeze/thaws for all reagents. The GR Screening buffer 10X comprises 100 mM potassium phosphate, 200 mM sodium molybdate, 1 mM EDTA and 20% DMSO.
Test compounds (1 μL) and controls (1 μL) in 100% DMSO were added to black polystyrene 384-well plates (Greiner low volume black flat-bottom, part number 784076). […] was 100% DMSO and 100% control was 10 μM Dexamethasone. Background solution (8 μL; assay buffer 10X, Stabilizing Peptide, DTT and ice cold MQ water) was added to the background wells. GS Red solution (7 μL; assay buffer 10X, Stabilizing Peptide, DTT, GS Red and ice cold water) was added to all wells except background wells. GR solution (7 μL; assay buffer 10X, Stabilizing Peptide, DTT, GR and ice cold water) was added to all wells. The plate was sealed and incubated in a dark at room temperature for 2 hours. The plate was read in an Analyst plate reader (LJL Biosystems/Molecular Devices Corporation) or other similar plate reader capable of recording fluorescence polarization (excitation wavelength 530 nm, emission wavelength […] and a dichroic mirror at 561 nm). The IC50 values were calculated using XLfit model 205.

Row | IC50 [nM] | Structure (SMILES)
1 | 640 | O=[N+]([O-])c1cc(Cl)ccc1NCCCNS(=O)(=O)c1ccc2ccccc2c1 [Example 5]
2 | 700 | CCOc1ccc(S(=O)(=O)NCCc2ccc(S(N)(=O)=O)cc2)c2cccnc12 [Example 6]
3 | 700 | Cc1csc(NC(=O)CN(CC(C)C)S(=O)(=O)c2cccc3ccccc23)n1 [Example 7]
4 | 1200 | Cc1cc(C)c(S(=O)(=O)NCCc2c(C)[nH]c3ccc(C)cc23)c(C)c1 [Example 8]
5 | 1600 | CCCN(c1nc(C)c(Cl)c(OC)n1)S(=O)(=O)c1ccc(C)cc1 [Example 9]
6 | 600 | CC(C)c1cc(C(C)C)c(S(=O)(=O)NCc2ccncc2)c(C(C)C)c1 [Example 10]
7 | 2200 | COC(=O)c1c(C)oc2ccc(N(C(=O)c3ccncc3)S(=O)(=O)c3ccc(C)cc3C)cc12 [Example 11]
8 | 6000 | Cc1cc(NC(=O)CN(C2CCCCC2)S(=O)(=O)c2cccc3ccccc23)no1 [Example 12]
9 | 2200 | Cc1cc(NC(=O)CN(CC2CCCCC2)S(=O)(=O)c2cccc3ccccc23)no1 [Example 13]
10 | 1700 | C=CCN(c1nc(C)c(Cl)c(OC)n1)S(=O)(=O)c1ccc(C)cc1 [Example 14]
11 | 6300 | CCNc1nc(NC(C)C)nc(OCCNS(=O)(=O)c2cc(C)ccc2C)n1 [Example 15]
12 | 4400 | CCCCOc1ccc(NS(=O)(=O)c2cccc3c(N(C)C)cccc23)cn1 [Example 16]
13 | 540 | Cc1cc(Br)ccc1S(=O)(=O)NC(C)CCc1ccccc1 (stereo not drawn) [Example 19, 4-Bromo-2-methyl-N-(1-methyl-3-phenyl-propyl)-benzenesulfonamide]
14 | 90 | Cc1cc(C)c(S(=O)(=O)NC(C)CCc2ccccc2)c(C)c1 (stereo not drawn) [Example 32, 2,4,6-Trimethyl-N-(1-methyl-3-phenyl-propyl)-benzenesulfonamide]
15 | 3000 | Cc1cccc(C)c1OCC(C)NS(=O)(=O)c1cccc([N+](=O)[O-])c1 (stereo not drawn) [Example 34, N-[2-(2,6-Dimethyl-phenoxy)-1-methyl-ethyl]-3-nitro-benzenesulfonamide]
16 | 17 | Cc1cc(C)c(S(=O)(=O)N[C@@H](C)COc2cccc3cnccc23)c(C)c1 [Example 77, N-[(1S)-2-(5-Isoquinolinyloxy)-1-methylethyl]-2,4,6-trimethylbenzenesulfonamide]
17 | 23 | Cc1cc(C)c(S(=O)(=O)N[C@@H](C)COc2cccc3[nH]ccc23)c(C)c1 [Example 78, N-[(1S)-2-(1H-Indol-4-yloxy)-1-methylethyl]-2,4,6-trimethylbenzenesulfonamide]
18 | 140 | Cc1cc(C)c(S(=O)(=O)N[C@@H](C)COc2cccc3ncccc23)c(C)c1 [Example 79, 2,4,6-Trimethyl-N-[(1S)-1-methyl-2-(5-quinolinyloxy)ethyl]benzenesulfonamide]
19 | 230 | Cc1cc(C)c(S(=O)(=O)N[C@@H](C)COc2ccc3c(c2)OCO3)c(C)c1 [Example 80, N-[(1S)-2-(1,3-Benzodioxol-5-yloxy)-1-methylethyl]-2,4,6-trimethylbenzenesulfonamide]
20 | 370 | Cc1cc(C)c(S(=O)(=O)N[C@@H](C)COc2ccnc3ccccc23)c(C)c1 [Example 81, 2,4,6-Trimethyl-N-[(1S)-1-methyl-2-(4-quinolinyloxy)ethyl]benzenesulfonamide]
21 | 3400 | Cc1cc(C)c(S(=O)(=O)N[C@@H](C)COc2ncnc3ccccc23)c(C)c1 [Example 82, 2,4,6-Trimethyl-N-[(1S)-1-methyl-2-(4-quinazolinyloxy)ethyl]benzenesulfonamide]
22 | 8900 | Cc1cc(C)c(S(=O)(=O)N[C@@H](C)COc2cccc3cccnc23)c(C)c1 [Example 83, 2,4,6-Trimethyl-N-[(1S)-1-methyl-2-(8-quinolinyloxy)ethyl]benzenesulfonamide]
23 | 18 | Cc1cc(C)c(S(=O)(=O)N[C@@H](C)CNc2ccc(C)c3ncccc23)c(C)c1 [Example 123, 2,4,6-Trimethyl-N-{(1S)-1-methyl-2-[(8-methylquinolin-5-yl)amino]ethyl}-benzenesulfonamide]
24 | 20 | Cc1cc(C)c(S(=O)(=O)N[C@@H](C)CNc2c(C)ccc3ncccc23)c(C)c1 [Example 124, 2,4,6-Trimethyl-N-{(1S)-1-methyl-2-[(6-methylquinolin-5-yl)amino]ethyl}-benzenesulfonamide]
25 | 42 | Cc1cc(C)c(S(=O)(=O)N[C@@H](C)CNc2cccc3[nH]ncc23)c(C)c1 [Example 125, N-[(1S)-2-(1H-Indazol-4-ylamino)-1-methylethyl]-2,4,6-trimethylbenzenesulfonamide]
26 | 75 | Cc1cc(C)c(S(=O)(=O)N[C@@H](C)CNc2cccc3ncccc23)c(C)c1 [Example 126, 2,4,6-Trimethyl-N-[(1S)-1-methyl-2-(quinolin-5-Ylamino)ethyl]benzenesulfonamide]
27 | 96 | Cc1nn(-c2ccccc2)c(C)c1S(=O)(=O)N[C@@H](C)COc1cccc2cnccc12 [Example 160, N-[(1S)-2-(Isoquinolin-5-yloxy)-1-methylethyl]-3,5-dimethyl-1-phenyl-1-pyrazole-4-sulfonamide]

Source: US20090093485A1, “Novel Sulphonamide Derivatives as Glucocorticoid Receptor Modulators for the Treatment of Inflammatory Diseases” (ASTRAZENECA AB, priority 2004, published 2009)
